Results from patent publication US4259450A, “Antibiotic acanthomycin and process for preparing” (The Upjohn Company, priority 1977, dated 1981).

What was measured:
[1] = Solubilities; assay type: physicochemical
[2] = tested on: S. pyogenese; assay: in vivo protection of S. pyogenes infected mice; conditions: administered subcutaneously
[3] = tested on: S. aureus; assay: standard tube assay for antibacterial activity, nutrient broth; assay type: cell-based, Staphylococcus aureus
Procedure: (§1) Acanthomycin was tested for antibacterial activity in a standard tube assay using nutrient broth as the medium. The minimum inhibitory concentration in mcg/ml against S. aureus was 50, and against S. lutea it was 25. Additional testing on a standard disc (12.7 mm) plate assay gave the following results: […]

[4] = tested on: S. lutea; assay: as above; assay type: cell-based, Sarcina lutea
Procedure: as §1

[5] = tested on: S. aureus; assay: in vivo protection of S. aureus infected mice
Procedure: Acanthomycin was also tested in vivo in standard laboratory mice. […] Against S. aureus infected mice the CD50 was 1.0 mg/kg.

[6] = tested on: Streptococcus pyogenes; assay: standard disc (12.7 mm) plate assay; assay type: cell-based
Procedure: (§2) Acanthomycin was tested for antibacterial activity in a standard tube assay using nutrient broth as the medium. The minimum inhibitory concentration in mcg/ml against S. aureus was 50, and against S. lutea it was 25. Additional testing on a standard disc (12.7 mm) plate assay gave the following results:
(§3) The fermentation can be monitored by a disc-plate assay using B. subtilis as the test organism and deionized H2 O as diluent. A unit volume (0.08 ml) of solution containing the substance to be assayed is placed on a 12.7 mm paper disc which is then placed on an agar plate seeded with the assay organism. The agar plate is then incubated for 16 to 18 hours at 32° to 37° C. A biounit (BU) is defined as the concentration of the antibiotic which gives a 20 mm zone of inhibition under the standard assay conditions. Thus, if for example a fermentation beer has to be diluted 1/100 to give a 20 mm zone of inhibition, the potency of such beer is 100 BU/ml.

[7] = tested on: Bacillus subtilis; assay: standard disc (12.7 mm) plate assay; assay type: cell-based
Procedure: as §2, §3

[8] = tested on: Staphylococcus aureus; assay: standard disc (12.7 mm) plate assay; assay type: cell-based
Procedure: as §2, §3

[9] = tested on: Bacillus cereus; assay: standard disc (12.7 mm) plate assay; assay type: cell-based
Procedure: as §2, §3

[10] = tested on: Sarcina lutea; assay: standard disc (12.7 mm) plate assay; assay type: cell-based
Procedure: as §2, §3

[11] = free acid, slightly soluble, ca.

acanthomycin
solubility in dimethylformamide ([1]; free acid): soluble | solubility in dimethylsulfoxide ([1]; free acid): soluble | solubility in ether ([1]; free acid): relatively insoluble | solubility in halogenated hydrocarbon solvents ([1]; free acid): relatively insoluble | solubility in saturated hydrocarbon solvents ([1]; free acid): relatively insoluble | solubility in water ([1]; free acid): relatively insoluble | solubility in ethanol [1, 11]: 1000 to 2000 µg/mL | solubility in methanol [1, 11]: 1000 to 2000 µg/mL | CD50 [2]: 0.23 (0.17-0.31) mg/kg | minimum inhibitory concentration [3]: 50 µg/mL | minimum inhibitory concentration [4]: 25 µg/mL | CD50 [5]: 1.0 mg/kg | Zone ([6]; 0.31 mg/ml): 34 mm | Zone ([6]; 0.62 mg/ml): 36.5 mm | Zone ([6]; 1.25 mg/ml): 38.5 mm | Zone ([6]; 2.5 mg/ml): 40 mm | Zone ([6]; 5 mg/ml): 40 mm | Zone ([6]; 10 mg/ml): 41.5 mm | Zone ([7]; 0.31 mg/ml): 26 mm | Zone ([7]; 0.62 mg/ml): 28 mm | Zone ([7]; 1.25 mg/ml): 30 mm | Zone ([7]; 2.5 mg/ml): 31.5 mm | Zone ([7]; 5 mg/ml): 33 mm | Zone ([7]; 10 mg/ml): 34 mm | activity against B. subtilis ([7]; statement in words): active | Zone ([8]; 0.31 mg/ml): 22.5 mm | Zone ([8]; 0.62 mg/ml): 24.5 mm | Zone ([8]; 1.25 mg/ml): 26.5 mm | Zone ([8]; 2.5 mg/ml): 28 mm | Zone ([8]; 5 mg/ml): 28.5 mm | Zone ([8]; 10 mg/ml): 29.5 mm | activity against S. aureus ([8]; statement in words): active | Zone ([9]; 0.31 mg/ml): 17 mm | Zone ([9]; 0.62 mg/ml): 20 mm | Zone ([9]; 1.25 mg/ml): 21 mm | Zone ([9]; 2.5 mg/ml): 23 mm | Zone ([9]; 5 mg/ml): 25 mm | Zone ([9]; 10 mg/ml): 26 mm | Zone ([10]; 0.31 mg/ml): 25 mm | Zone ([10]; 0.62 mg/ml): 27 mm | Zone ([10]; 1.25 mg/ml): 30 mm | Zone ([10]; 2.5 mg/ml): 32 mm | Zone ([10]; 5 mg/ml): 34 mm | Zone ([10]; 10 mg/ml): 35 mm

acanthomycin ammonium salt
solubility in lower alcohols ([1]; salts (ammonium and sodium)): soluble | solubility in water ([1]; salts (ammonium and sodium)): soluble
